According to ChEMBL document CHEMBL1121794, “Octanol-physiological buffer distribution coefficients of lipophilic amines by reversed-phase high-performance liquid chromatography and their correlation with biological activity” (J Med Chem, 1981):

Assays:
[1] = (§1) Partition coefficient (logD) (HPLC); assay type: physicochemical; conditions: octanol/water
[2] = as §1; assay type: physicochemical; conditions: octanol/water; remark: listed apart in the source
[3] = (§2) Partition coefficient (logD7.4); conditions: octanol/water, pH 7.4
[4] = not given; remark: listed apart in the source
[5] = not given; remark: listed apart in the source
[6] = not given; remark: listed apart in the source
[7] = not given; remark: listed apart in the source
[8] = not given; remark: listed apart in the source
physchem [9] = conditions: octanol/water
physchem [10] = conditions: octanol/water; remark: listed apart in the source
[11] = octanol/water
Description: Partition coefficient (logD, measured by HPLC, log k')

[12] = not given; remark: listed apart in the source
[13] = not given; remark: listed apart in the source
[14] = not given; remark: listed apart in the source
[15] = not given; remark: listed apart in the source
[16] = not given; remark: listed apart in the source
[17] = not given; remark: listed apart in the source
[18] = not given; remark: listed apart in the source
[19] = not given; remark: listed apart in the source
physchem [20] = conditions: octanol/water, pH 7.4
[21] = as §2; conditions: octanol/water, pH 7.4; remark: listed apart in the source
[22] = (§3) logD (measured by HPLC) (as log k'); assay type: ADME
Rattus norvegicus [23] = organism: Rattus norvegicus
Rattus norvegicus [24] = organism: Rattus norvegicus; remark: listed apart in the source
Description: Apparent partition coefficient was measured as histamine releasing activity in rat mast cells.

[25] = target: Serum albumin (Bos taurus) (UniProt P02769); assay: BSA binding (log K)
[26] = not given; remark: listed apart in the source
Rattus norvegicus [27] = organism: Rattus norvegicus; assay: Log (1/ED50) was measured as histamine releasing activity in rat mast cells; log(1/ED50*10e-3).; assay type: functional
[28] = as §2; assay type: physicochemical; conditions: octanol/water, pH 7.4
[29] = as §3; assay type: ADME; remark: listed apart in the source
[30] = as §3; assay type: ADME; remark: listed apart in the source
[31] = The compound was tested for its ability to inhibit Na+/K+ ATPase in rat brain.; assay type: tissue-based
Rattus norvegicus [32] = organism: Rattus norvegicus; assay: pKa value was measured by water/octanol using shake-flask method.
[33] = not given; remark: listed apart in the source
Rattus norvegicus [34] = organism: Rattus norvegicus; remark: listed apart in the source

`CN(C)CCC(c1ccc(Cl)cc1)c1ccccn1` (stereo not drawn) [CHLORPHENIRAMINE] gave a logD [1] of 0.466, a logD [2] of 0.466 and a logD [3] of 1.38. For the same molecule, the “Log k'” value was 0.074, the “Log k'” value [4] was 0.334 and the “Log k'” value [5] was -0.329. For the same molecule, the “Log k'” value [6] was 0.007, the “Log k'” value [7] was 0.273 and the “Log k'” value [8] was 0.262. For the same molecule, the logD (physchem [9]) was 1.53 and the logD (physchem [10]) was 1.51.
In the case of `c1ccc2nc3ccccc3cc2c1` [ACRIDINE], the logD [3] is reported as 3.29, the “Log k'” value [11] is reported as 1.993 and the “Log k'” value [12] is reported as 1.556. The “Log k'” value was 1.447, the “Log k'” value [4] was 0.775 and the “Log k'” value [5] was 0.685. For the same molecule, the “Log k'” value [6] was 1.501, the “Log k'” value [7] was 2.146 and the “Log k'” value [8] was 2.103.
In the case of `CN1CCC(=C2c3ccccc3C=Cc3ccccc32)CC1` [CYPROHEPTADINE], the logD [3] is reported as 3.11, the “Log k'” value [11] is reported as 1.853 and the “Log k'” value [13] is reported as 1.715. The “Log k'” value [14] was 1.527, the “Log k'” value [15] was 1.715 and the “Log k'” value [16] was 1.529. The “Log k'” value [17] was 1.43, the “Log k'” value [18] was 1.037 and the “Log k'” value [6] was 1.516. For the same molecule, the “Log k'” value [7] was 1.999, the “Log k'” value [19] was 1.984 and the logD (physchem [20]) was 3.14.
For `CN1CCCCC1CCN1c2ccccc2Sc2ccc([S+](C)[O-])cc21` (stereo not drawn) [MESORIDAZINE], the logD [3] was 1.8, the “Log k'” value [11] was 1.045 and the “Log k'” value [12] was 0.923. For the same molecule, the logD (physchem [9]) was 1.84 and the logD (physchem [10]) was 1.78.
With `CN1CCN(CCCN2c3ccccc3Sc3ccc(Cl)cc32)CC1` [PROCHLORPERAZINE] the pKa [21] was 8.1, the “Log k'” value [22] was 2.292 and the “Log k'” value [4] was 1.907. For the same molecule, the “Log k'” value [5] was 1.571, the “Log k'” value [8] was 2.767 and the “Log 1/ED50” value (Rattus norvegicus [23]) was 2.75. It also gave a Papp (Rattus norvegicus [24]) of 2.4 and a BSA binding [25] of 3.83.
In the case of `CN(C)CCCN1c2ccccc2Sc2ccc(Cl)cc21` [CHLORPROMAZINE], the logD [3] is reported as 3.221, the “Log k'” value [22] is reported as 1.911 and the “Log k'” value [11] is reported as 2.061. For the same molecule, the “Log k'” value [14] was 1.751, the “Log k'” value [26] was 2.144 and the “Log k'” value [15] was 1.911. For the same molecule, the “Log k'” value [16] was 1.667, the “Log k'” value [17] was 1.632 and the “Log k'” value [18] was 1.086. For the same molecule, the “Log k'” value [6] was 1.656, the “Log k'” value [7] was 2.144 and the Papp (Rattus norvegicus [24]) was 2.92. The logD (physchem [20]) was 3.17.
For `CN(C)CC/C=C1/c2ccccc2Sc2ccc(Cl)cc21` [CHLORPROTHIXENE], the “Log k'” value [22] was 2.142, the Histamine release (Rattus norvegicus [27]) was 2.57 and the Papp (Rattus norvegicus [24]) was 2.67.
For `CNCCC=C1c2ccccc2CCc2ccccc21` [NORTRIPTYLINE], the pKa [21] was 9.73, the logD [3] was 1.98 and the “Log k'” value [11] was 1.162. For the same molecule, the Log k' [17] was 0.899, the Log k' [18] was 0.349 and the “Log 1/ED50” value (Rattus norvegicus [23]) was 1.76. The Papp (Rattus norvegicus [24]) was 1.8, the logD (physchem [9]) was 2.04 and the logD (physchem [10]) was 2.01.
With `CN(C)CCC=C1c2ccccc2COc2ccccc21` [DOXEPIN] the logD [3] was 2.22, the logD [28] was 2.22 and the “Log k'” value [11] was 1.044. For the same molecule, the “Log k'” value [13] was 1.025, the “Log k'” value [14] was 0.778 and the “Log k'” value [15] was 1.025. The “Log k'” value [16] was 0.642, the “Log k'” value [17] was 0.886 and the “Log k'” value [18] was 0.33. For the same molecule, the “Log k'” value [6] was 0.632, the “Log k'” value [7] was 1.115 and the “Log k'” value [19] was 1.086. The logD (physchem [20]) was 2.2, the logD (physchem [9]) was 2.36 and the logD (physchem [10]) was 2.32.
For `Cc1cccc(C)c1NC(=O)C1CCCCN1C` (stereo not drawn) [MEPIVACAINE], the logD [3] was 1.27, the “Log k'” value [11] was -0.098 and the “Log k'” value [12] was -0.429. The “Log k'” value was 0.008, the “Log k'” value [4] was -0.462 and the “Log k'” value [5] was -0.492. For the same molecule, the “Log k'” value [6] was -0.564, the “Log k'” value [7] was 0.051 and the Log k' [8] was 0.008. For the same molecule, the logD (physchem [9]) was 1.22 and the logD (physchem [10]) was 1.26.
In the case of `CC(CN1c2ccccc2Sc2ccccc21)N(C)C` (stereo not drawn) [PROMETHAZINE], the logD [3] is reported as 2.849, the “Log k'” value [29] is reported as 1.252 and the “Log k'” value [30] is reported as 0.757. For the same molecule, the “Log k'” value [22] was 1.512, the Activity [31] was -0.37 and the pKa (Rattus norvegicus [32]) was 9.4. The “Log k'” value [11] was 1.595, the “Log k'” value [14] was 1.271 and the “Log k'” value [33] was 1.176. For the same molecule, the “Log k'” value [26] was 1.669, the “Log k'” value [15] was 1.512 and the “Log k'” value [6] was 1.172. The “Log k'” value [7] was 1.67, the “Log 1/ED50” value (Rattus norvegicus [34]) was 1.82 and the logD (physchem [20]) was 2.79.
In the case of `O=[N+]([O-])c1ccccc1` [NITROBENZENE], the logD [3] is reported as 1.88 and the “Log k'” value [11] is reported as 0.564.
In the case of `CN(C)CCCN1c2ccccc2CCc2ccccc21` [IMIPRAMINE], the “Log k'” value [11] is reported as 1.194, the “Log k'” value [13] is reported as 1.145 and the “Log k'” value [14] is reported as 0.934. For the same molecule, the “Log k'” value [16] was 0.806 and the “Log k'” value [19] was 1.227.
